Data as given in ChEMBL document CHEMBL6153023, “Tubulin/HDAC dual-target inhibitors: Insights from design strategies, SARs, and therapeutic potential” (Eur J Med Chem, 2025).

How the values were obtained:
Tubulin [1] = assay: Inhibition of tubulin polymerization (unknown origin) by fluorescence based assay; format: protein-complex assay, Homo sapiens
Histone deacetylase 1 [2] = target: T1, Histone deacetylase 1 (Homo sapiens, UniProt Q13547); assay: Inhibition of human recombinant FLAG/His-tagged HDAC1 using fluorogenic substrate by fluorescence microplate reader assay
T1 sequence (Q13547 whole entry): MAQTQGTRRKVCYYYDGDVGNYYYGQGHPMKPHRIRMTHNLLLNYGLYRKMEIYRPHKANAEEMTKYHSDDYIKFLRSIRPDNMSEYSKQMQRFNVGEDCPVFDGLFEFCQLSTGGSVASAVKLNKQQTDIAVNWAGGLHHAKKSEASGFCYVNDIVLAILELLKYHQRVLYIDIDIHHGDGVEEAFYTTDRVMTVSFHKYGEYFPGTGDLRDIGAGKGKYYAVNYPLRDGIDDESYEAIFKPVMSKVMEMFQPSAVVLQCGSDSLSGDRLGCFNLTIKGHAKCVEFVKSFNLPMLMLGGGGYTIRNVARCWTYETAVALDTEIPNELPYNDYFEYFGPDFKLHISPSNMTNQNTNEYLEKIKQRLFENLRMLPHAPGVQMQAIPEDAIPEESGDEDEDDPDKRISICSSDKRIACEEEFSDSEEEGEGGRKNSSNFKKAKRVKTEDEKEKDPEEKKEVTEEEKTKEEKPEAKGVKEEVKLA

[3] = target: T2, Protein deacetylase HDAC6 (Homo sapiens, UniProt Q9UBN7); assay: Inhibition of FLAG/His-tagged human recombinant HDAC6 extracted from baculovirus infected Sf9 cells […] by fluorescence based analysis
T2 sequence (Q9UBN7 whole entry): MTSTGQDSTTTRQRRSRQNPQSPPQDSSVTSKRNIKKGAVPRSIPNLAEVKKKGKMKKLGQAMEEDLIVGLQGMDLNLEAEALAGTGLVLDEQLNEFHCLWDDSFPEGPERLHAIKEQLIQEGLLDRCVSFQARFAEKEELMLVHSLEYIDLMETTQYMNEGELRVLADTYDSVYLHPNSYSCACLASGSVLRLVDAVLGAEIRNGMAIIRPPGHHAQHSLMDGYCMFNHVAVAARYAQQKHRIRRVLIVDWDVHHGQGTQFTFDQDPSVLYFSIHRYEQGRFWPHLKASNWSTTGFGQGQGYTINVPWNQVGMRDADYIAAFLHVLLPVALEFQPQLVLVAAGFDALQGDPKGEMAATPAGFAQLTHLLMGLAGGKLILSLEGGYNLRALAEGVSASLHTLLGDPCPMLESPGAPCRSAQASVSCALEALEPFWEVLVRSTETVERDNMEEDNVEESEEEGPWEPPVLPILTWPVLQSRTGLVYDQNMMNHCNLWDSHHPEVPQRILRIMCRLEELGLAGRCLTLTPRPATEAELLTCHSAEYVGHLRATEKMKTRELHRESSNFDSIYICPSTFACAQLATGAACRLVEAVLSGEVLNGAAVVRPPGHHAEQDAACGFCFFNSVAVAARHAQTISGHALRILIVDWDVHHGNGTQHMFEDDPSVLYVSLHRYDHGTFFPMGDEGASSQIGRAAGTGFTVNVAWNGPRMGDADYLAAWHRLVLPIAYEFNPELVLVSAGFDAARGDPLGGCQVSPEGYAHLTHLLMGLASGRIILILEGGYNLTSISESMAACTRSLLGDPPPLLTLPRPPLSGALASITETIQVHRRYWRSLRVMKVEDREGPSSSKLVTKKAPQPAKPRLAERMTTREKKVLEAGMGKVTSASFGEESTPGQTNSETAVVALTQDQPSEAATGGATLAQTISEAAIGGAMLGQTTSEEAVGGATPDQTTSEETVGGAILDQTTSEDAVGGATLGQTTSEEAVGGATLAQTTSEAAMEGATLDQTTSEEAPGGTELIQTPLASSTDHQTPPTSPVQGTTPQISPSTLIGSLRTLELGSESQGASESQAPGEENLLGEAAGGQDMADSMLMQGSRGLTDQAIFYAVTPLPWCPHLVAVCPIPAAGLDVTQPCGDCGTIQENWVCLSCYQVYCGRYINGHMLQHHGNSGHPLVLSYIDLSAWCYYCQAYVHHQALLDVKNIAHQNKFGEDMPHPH

UO-31 = assay: Antiproliferative activity against human UO-31 cells assessed as reduction in cell viability by MTT assay; format: functional, cell-based
T47D = assay: Antiproliferative activity against human T47D cells assessed as reduction in cell viability by MTT assay; format: functional, cell-based
518A2 = assay: Antiproliferative activity against human 518A2 cells assessed as reduction in cell viability incubated for 72 hrs by MTT assay; format: functional, cell-based; settings: 518A2, 72 h
Histone deacetylase 1 [4] = target: T1, Histone deacetylase 1; assay: Inhibition of human recombinant HDAC1 using Boc-Lys(Ac)-AMC or Boc-Lys(Tfa)-AMC as substrate incubated for 1 hr by fluorescence based analysis
Histone deacetylase 2 [5] = target: T3, Histone deacetylase 2 (Homo sapiens, UniProt Q92769); assay: Inhibition of human recombinant HDAC2 extracted from baculovirus infected Sf9 insect cells using Ac-Leu-Gly-Lys(Ac)-AMC as substrate preincubated for 30 mins followed by substrate addition measured after 1 hr by fluorescence based analysis
T3 sequence (Q92769 whole entry): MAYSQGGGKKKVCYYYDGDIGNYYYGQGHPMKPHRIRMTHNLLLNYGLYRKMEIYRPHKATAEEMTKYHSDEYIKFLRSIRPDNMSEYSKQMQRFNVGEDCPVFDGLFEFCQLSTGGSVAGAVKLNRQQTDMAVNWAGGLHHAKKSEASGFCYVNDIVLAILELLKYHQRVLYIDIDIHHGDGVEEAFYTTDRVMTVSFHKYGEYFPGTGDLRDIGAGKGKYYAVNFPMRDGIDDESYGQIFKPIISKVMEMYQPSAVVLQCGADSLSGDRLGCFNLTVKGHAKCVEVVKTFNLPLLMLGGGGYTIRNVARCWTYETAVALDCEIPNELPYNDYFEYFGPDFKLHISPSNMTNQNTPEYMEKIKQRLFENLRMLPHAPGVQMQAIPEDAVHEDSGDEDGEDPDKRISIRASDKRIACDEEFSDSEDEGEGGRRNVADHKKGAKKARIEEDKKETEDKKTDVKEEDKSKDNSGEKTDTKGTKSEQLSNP

[6] = target: T2, Protein deacetylase HDAC6; assay: Inhibition of human recombinant HDAC6 using Boc-Lys(Ac)-AMC as substrate preincubated for 15 mins followed by substrate addition and measured after 60 mins by fluorescence based microplate reader analysis
Homo sapiens [7] = organism: Homo sapiens; assay: Selectivity index, ratio of IC50 for inhibition of human recombinant HDAC1 to IC50 for inhibition of human recombinant HDAC6
Homo sapiens [8] = organism: Homo sapiens; assay: Selectivity index, ratio of IC50 for inhibition of human recombinant HDAC2 to IC50 for inhibition of human recombinant HDAC6
[9] = Inhibition of bovine brain tubulin polymerization measured after 20 mins by spectrophotometric analysis; design: species or system Bos taurus
Tubulin [10] = assay: Inhibition of tubulin polymerization (unknown origin); format: protein-complex assay, Homo sapiens
Histone deacetylase 1 [11] = target: T1, Histone deacetylase 1; assay: Inhibition of HDAC1 (unknown origin)
MGC-803 = assay: Antiproliferative activity against human MGC-803 cells assessed as reduction in cell viability by MTT assay; format: functional, cell-based
HCT-116 [12] = assay: Antiproliferative activity against human HCT-116 cells assessed as reduction in cell viability by MTT assay; format: functional, cell-based
KYSE-450 = assay: Antiproliferative activity against human KYSE-450 cells assessed as reduction in cell viability by MTT assay; format: functional, cell-based
Tubulin (Homo sapiens) = Tubulin (Homo sapiens) (UniProt P68371+Q9H4B7+P0DPH7+P68366+Q13509+Q71U36+P04350+Q3ZCM7+P07437+P68363+Q9BQE3+Q6PEY2+Q13885+Q9BVA1+Q9BUF5); assay: Inhibition of tubulin polymerization (unknown origin) at 10 uM relative to control; format: protein-complex assay
Histone deacetylase 2 [13] = target: T3, Histone deacetylase 2; assay: Inhibition of human recombinant HDAC2 extracted from baculovirus infected Insect cells using Ac-Lys-Tyr-Lys (acetyl)-AMC as substrate incubated for 24 hrs by fluorescence analysis; design: species or system Insect cell
MCF7 [14] = assay: Antiproliferative activity against human MCF7 cells assessed as reduction in cell viability incubated for 72 hrs by MTT assay; format: functional, cell-based; settings: MCF7, 72 h
HepG2 = assay: Antiproliferative activity against human HepG2 cells assessed as reduction in cell viability incubated for 72 hrs by MTT assay; format: functional, cell-based; settings: HepG2, 72 h
[15] = target: T2, Protein deacetylase HDAC6; assay: Inhibition of HDAC6 (unknown origin)
A549 [16] = assay: Antiproliferative activity against human A549 cells assessed as reduction in cell viability incubated for 48 hrs by MTT assay; format: functional, cell-based; settings: A549, 48 h
HCT-116 [17] = assay: Antiproliferative activity against human HCT-116 cells assessed as reduction in cell viability incubated for 48 hrs by MTT assay; format: functional, cell-based; settings: HCT-116, 48 h
PC-3 [18] = assay: Antiproliferative activity against human PC-3 cells assessed as reduction in cell viability incubated for 48 hrs by MTT assay; format: functional, cell-based; settings: PC-3, 48 h
HL-60 = assay: Antitumor activity against human HL-60 cells xenografted in nude mouse assessed as inhibition of tumor growth at 100 mg/kg, ip administered once daily for 7 days relative to control; format: functional; settings: HL-60, 168 h, time 7 day, read-out: TGI
PC-3 [19] = assay: Antitumor activity against human PC-3 cells xenografted in nude mouse assessed as inhibition of tumor growth at 100 mg/kg, ip administered once daily for 7 days relative to control; format: functional; settings: PC-3, 168 h, time 7 day, read-out: TGI
A549 [20] = assay: Cytotoxicity against human A549 cells assessed as reduction in cell growth measured for 72 hrs by MTT assay; format: functional, cell-based; settings: A549, 72 h
MCF7 [21] = assay: Antitumor activity against human MCF7 cells xenografted in BALB/c nude mouse assessed as tumor growth inhibition at 25 mg/kg, ip administered once daily for 1 week relative to control; format: functional; settings: MCF7, 168 h, time 1 weeks, read-out: TGI
HCT-116 [22] = assay: Antitumor activity against human HCT-116 cells xenografted in BALB/c nude mouse assessed as tumor growth inhibition at 25 mg/kg, ip administered once daily for 1 week relative to control; format: functional; settings: HCT-116, 168 h, time 1 weeks, read-out: TGI
A2780 = assay: Antitumor activity against human A2780 cells xenografted in BALB/c nude mouse assessed as tumor growth inhibition at 25 mg/kg, ip administered once daily for 1 week relative to control; format: functional; settings: A2780, 168 h, time 1 weeks, read-out: TGI

CNC(=O)CCCCOc1nc(-c2ccc(OC)cc2)cc(-c2cc(OC)c(OC)c(OC)c2)c1C#N
IC50 (Tubulin [1]): 3.52 µM
IC50 (Histone deacetylase 1 [2]): 73.2 nM
IC50 [3]: 84 nM
IC50 (UO-31): 3.52 µM
IC50 (T47D): 5.5 µM

COc1ccc(-c2ocnc2-c2cc(Br)c(OC)c(OC)c2)cc1OCCCC(=O)NO
IC50 (518A2): 710 nM

COc1ccc2c(C(=O)c3cc(OC)c(OC)c(OO)c3)cn(Cc3ccc(C(=O)NO)cc3)c2c1
IC50 (Histone deacetylase 1 [4]): 573 nM
IC50 (Histone deacetylase 2 [5]): 1410 nM
IC50 [6]: 65 nM
Ratio IC50 (Homo sapiens [7]): 8.89
Ratio IC50 (Homo sapiens [8]): 21.8

COc1cccc(C(=O)c2oc3cc(OC)c(C#CC(=O)NO)cc3c2C)c1
IC50 [9]: 420 nM

COc1ccc(CN(C(=O)CC2CCC(C(=O)Nc3ccccc3N)CC2)c2cc(OC)c(OC)c(OC)c2)cc1O (stereo not given)
IC50 (Tubulin [10]): 3640 nM
IC50 (Histone deacetylase 1 [11]): 525 nM
IC50 (MGC-803): 39 nM
IC50 (HCT-116 [12]): 172 nM
IC50 (KYSE-450): 254 nM

COc1ccc(-c2cccc(-c3cc(OC)c(OC)c(OC)c3)n2)cc1O
inhibition (Tubulin (Homo sapiens)): 32%

COc1cc([C@@H]2c3cc4c(cc3C[C@H]3COC(=O)[C@@H]32)OCO4)cc(OC)c1OC(=O)CC(=O)Nc1ccc(C(=O)Nc2ccccc2N)cc1
IC50 (Histone deacetylase 2 [13]): 1730 nM

COc1cc(/C=C/C(=O)c2ccc(NC(=O)c3ccccc3CN3C(=O)c4ccccc4C3=O)cc2)cc(OC)c1OC
IC50 (Tubulin [10]): 2320 nM
IC50 (MCF7 [14]): 1880 nM
IC50 (HepG2): 1620 nM

COc1ccc2c(C(=O)c3cc(OC)c(OC)c(OO)c3)cn(S(=O)(=O)c3cccc(/C=C/CC(=O)NO)c3)c2c1
IC50 [15]: 276 nM
IC50 (A549 [16]): 73 nM
IC50 (HCT-116 [17]): 44 nM
IC50 (PC-3 [18]): 33 nM
inhibition in vivo at 100 mg/kg (HL-60): 40.9%
inhibition in vivo at 100 mg/kg (PC-3 [19]): 31.1%

COc1ccc2c(C(=O)c3cc(OC)c(OC)c(OO)c3)c[nH]c2c1
IC50 (Tubulin [10]): 2800 nM

COc1cc([C@@H]2c3cc4c(cc3C[C@H]3COC(=O)[C@@H]32)OCO4)cc(OC)c1OC(=O)CC(=O)NCc1ccc(C(=O)Nc2ccccc2N)cc1
IC50 (A549 [20]): 40 nM

COc1ccc2c(C)c(C(=O)c3cc(OC)c(OC)c(OC)c3)oc2c1
IC50 (Tubulin [10]): 620 nM

COc1ccc(-c2cccc(-c3cc(OC)c(OC)c(OC)c3)n2)cc1CCC(=O)NO
IC50 (Tubulin [10]): 117 nM

COc1ccc(N(C)c2nc(C)nc3ccccc23)cc1OCCCC(=O)NO
inhibition in vivo at 25 mg/kg (MCF7 [21]): 50.5%
inhibition in vivo at 25 mg/kg (HCT-116 [22]): 60.4%
inhibition in vivo at 25 mg/kg (A2780): 77.4%
